# Data published in patent US9464084B2, “P2X7 modulators” (Janssen Pharmaceutica NV, priority 2013, dated 2016).
# Assays:
# [1] = molecular target: P2X7 (Homo sapiens (Human), UniProt Q99572); assay: P2X7 antagonism in human PBMCs (LPS + Bz-ATP induced IL-1β release, ELISA); assay type: cell-based; conditions: LPS 30 ng/ml, Bz-ATP 0.5 mM; for PBMC 1 μM (% control): compound 1 μM; for PBMC 10 μM (% control): compound 10 μM;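 as to all read-outs here: PBMCs from donor human blood, with a further 1.5 h incubation of the cells in the assay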
# Chain of P2X7 (Q99572 whole entry): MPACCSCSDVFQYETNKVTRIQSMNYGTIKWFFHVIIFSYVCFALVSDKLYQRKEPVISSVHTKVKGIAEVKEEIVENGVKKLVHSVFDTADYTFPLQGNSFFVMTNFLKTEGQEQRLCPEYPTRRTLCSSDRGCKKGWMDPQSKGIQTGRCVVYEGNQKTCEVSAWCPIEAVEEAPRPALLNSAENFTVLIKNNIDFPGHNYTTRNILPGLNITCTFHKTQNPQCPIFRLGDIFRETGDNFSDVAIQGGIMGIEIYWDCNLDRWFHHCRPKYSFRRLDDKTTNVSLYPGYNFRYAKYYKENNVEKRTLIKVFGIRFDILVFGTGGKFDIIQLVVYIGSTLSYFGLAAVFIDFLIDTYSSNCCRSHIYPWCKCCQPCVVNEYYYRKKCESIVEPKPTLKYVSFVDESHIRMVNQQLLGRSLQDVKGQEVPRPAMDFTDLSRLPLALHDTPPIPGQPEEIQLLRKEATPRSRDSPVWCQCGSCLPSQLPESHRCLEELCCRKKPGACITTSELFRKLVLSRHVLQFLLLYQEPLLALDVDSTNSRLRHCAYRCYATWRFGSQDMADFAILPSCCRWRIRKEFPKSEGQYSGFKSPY
# Protocol: Human blood was collected using a blood donor program. PBMCs were isolated from blood using a Ficoll density gradient technique. Briefly, blood was laid on Ficoll solution and centrifuged at RT for 20 minutes at 2000 rpm. The buffy layer (between red blood cells and plasma) was carefully collected by aspiration, washed with PBS and centrifuged again at 1500 rpm for 15 minutes. The resulting cell pellet was washed and plated on 96 well-plates for experiments. For the Mouse/Human Whole Blood experiments, 150 μl of either mouse or human blood was platted on 96 well-plates. Lipopolysaccharide (LPS) (30 ng/ml) was added to each well and incubated for 1 hour. Test compounds were then added and incubated for 30 minutes. The P2X7 agonist, 2′(3′)-O-(4-benzoylbenzoyl) adenosine 5′ triphosphate (Bz-ATP) was then added at a final concentration of 0.5 mM (PBMC) or 1 mM (blood). Cells were incubated for an additional 1.5 hours. At that point, supernatant was collected and stored for IL-1β assay using manufacturer's protocol for enzyme-linked immunosorbent assay (ELISA). Data was expressed as percent control, where control is defined as the difference in IL-1β release in LPS+Bz-ATP samples and LPS only samples. Data was plotted as response (% control) versus concentration to generate IC50 values.
# [2] = molecular target: rat P2X7 (Rattus norvegicus (Rat), UniProt Q64663); assay: Ca2+ flux (FLIPR) in 1321N1 cells expressing recombinant rat P2X7 channel; assay type: cell-based; conditions: 250 μM BzATP;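 also: Calcium-4 dye fluorescence change read 180 s after agonist addition, following 30 min cell preincubation with test compound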
# Chain of rat P2X7 (Q64663 whole entry): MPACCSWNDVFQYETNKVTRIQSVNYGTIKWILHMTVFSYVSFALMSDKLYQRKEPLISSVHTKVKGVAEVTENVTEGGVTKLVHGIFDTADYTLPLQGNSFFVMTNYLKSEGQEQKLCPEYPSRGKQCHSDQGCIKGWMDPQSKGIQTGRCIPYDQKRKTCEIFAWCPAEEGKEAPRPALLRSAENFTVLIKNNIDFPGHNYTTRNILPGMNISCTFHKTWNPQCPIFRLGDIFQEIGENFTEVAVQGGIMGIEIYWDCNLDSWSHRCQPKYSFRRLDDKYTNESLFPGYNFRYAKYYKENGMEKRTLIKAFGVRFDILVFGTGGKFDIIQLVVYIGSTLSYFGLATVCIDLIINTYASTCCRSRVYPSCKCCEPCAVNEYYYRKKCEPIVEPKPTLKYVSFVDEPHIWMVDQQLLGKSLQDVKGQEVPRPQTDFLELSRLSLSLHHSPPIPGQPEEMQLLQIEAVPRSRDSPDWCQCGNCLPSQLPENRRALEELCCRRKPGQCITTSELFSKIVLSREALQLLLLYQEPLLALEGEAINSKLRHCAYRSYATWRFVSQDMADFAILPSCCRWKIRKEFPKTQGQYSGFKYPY
PBMC 1 μM (% control) [1] [% control],IC50 [2] [µM],PBMC 10 μM (% control) [1] [% control],Structure (SMILES)
–,0.0906,6.4,"CC1c2ncn(-c3ncccn3)c2CCN1C(=O)c1cccc(C(F)(F)F)c1Cl (stereo not drawn) [Example 23, (2-Chloro-3-(trifluoromethyl)phenyl)(4-methyl-1-(pyrimidin-2-yl)-6,7-dihydro-1H-imidazo[4,5-c]pyridin-5(4H)-yl)methanone]"
–,0.0108,14.4,"C[C@@H]1Cc2c(nnn2-c2cc(F)ccn2)CN1C(=O)c1cccc(Cl)c1Cl (single isomer, unassigned) [Example 195, (6R*)-5-[(2,3-Dichlorophenyl)carbonyl]-1-(4-fluoropyridin-2-yl)-6-methyl-4,5,6,7-tetrahydro-1H-[1,2,3]triazolo[4,5-c]pyridine]"
–,> 10,−3.3,"O=C(c1cccc(Cl)c1Cl)N1CCc2c(-c3ccncc3)n[nH]c2C1 [Example 115, 6-[(2,3-Dichlorophenyl)carbonyl]-3-pyridin-4-yl-4,5,6,7-tetrahydro-2H-pyrazolo[3,4-c]pyridine]"
–,0.564,1.8,"C[C@@H]1c2n[nH]c(-c3ncc(F)cn3)c2CCN1C(=O)c1cccc(C(F)(F)F)c1Cl (single isomer, unassigned) [Example 223, (R*)-(2-chloro-3-(trifluoromethyl)phenyl)(3-(5-fluoropyrimidin-2-yl)-7-methyl-4,5-dihydro-2H-pyrazolo[3,4-c]pyridin-6(7H)-yl)methanone]"
–,0.133,5.3,"COc1ccnc(-n2nnc3c2CCN(C(=O)c2cccc(C(F)(F)F)c2Cl)C3)c1 [Example 136, (2-Chloro-3-(trifluoromethyl)phenyl)(1-(4-methoxypyridin-2-yl)-6,7-dihydro-1H-[1,2,3]triazolo[4,5-c]pyridin-5(4H)-yl)methanone]"
–,–,0.6,"C[C@H]1Cc2c(nnn2-c2ncccc2F)CN1C(=O)c1cccc(Cl)c1Cl (single isomer, unassigned) [Example 166, (6S*)-5-[(2,3-Dichlorophenyl)carbonyl]-1-(3-fluoropyridin-2-yl)-6-methyl-4,5,6,7-tetrahydro-1H-[1,2,3]triazolo[4,5-c]pyridine]"
–,–,0.6,"CC1Cc2c(nnn2-c2ncc(F)cn2)CN1C(=O)c1cccc(Cl)c1Cl (stereo not drawn) [Example 203, 5-[(2,3-Dichlorophenyl)carbonyl]-1-(5-fluoropyrimidin-2-yl)-6-methyl-4,5,6,7-tetrahydro-1H-[1,2,3]triazolo[4,5-c]pyridine]"
–,–,−0.1,"Cc1cccc(-n2nnc3c2CCN(C(=O)c2cccc(Cl)c2Cl)C3C)n1 (stereo not drawn) [Example 233, (2,3-dichlorophenyl)(4-methyl-1-(6-methylpyridin-2-yl)-6,7-dihydro-1H-[1,2,3]triazolo[4,5-c]pyridin-5(4H)-yl)methanone]"
102.6,–,–,"C[C@@H]1c2nnn(-c3cnccn3)c2CCN1C(=O)c1cccc(C(F)(F)F)c1Cl (single isomer, unassigned) [Example 74, (4R*)-5-{[2-Chloro-3-(trifluoromethyl)phenyl]carbonyl}-4-methyl-1-pyrazin-2-yl-4,5,6,7-tetrahydro-1H-[1,2,3]triazolo[4,5-c]pyridine]"

# Second part, the compound before the results:
Structure (SMILES),PBMC 1 μM (% control) [1] [% control],IC50 [2] [µM],PBMC 10 μM (% control) [1] [% control]
"CC1(C)c2ncn(-c3ccccc3)c2CCN1C(=O)c1cccc(C(F)(F)F)c1Cl [Example 53, 5-{[2-Chloro-3-(trifluoromethyl)phenyl]carbonyl}-4,4-dimethyl-1-phenyl-4,5,6,7-tetrahydro-1H-imidazo[4,5-c]pyridine]",99.0,4.95,–
"C[C@@H]1c2nnn(-c3ccn(CCF)n3)c2CCN1C(=O)c1cccc(C(F)(F)F)c1Cl (single isomer, unassigned) [Example 171, (R*)-(2-Chloro-3-(trifluoromethyl)phenyl)(1-(1-(2-fluoroethyl)-1H-pyrazol-3-yl)-4-methyl-6,7-dihydro-1H-[1,2,3]triazolo[4,5-c]pyridin-5(4H)-yl)methanone]",–,> 10,28.7
"CC1c2ncn(-c3ccc(F)cn3)c2CCN1C(=O)c1cccc(C(F)(F)F)c1F (stereo not drawn) [Example 262, (2-fluoro-3-(trifluoromethyl)phenyl)(1-(5-fluoropyridin-2-yl)-4-methyl-6,7-dihydro-1H-imidazo[4,5-c]pyridin-5(4H)-yl)methanone]",–,1.55,−3.6
"Cc1nc(-n2nnc3c2CCN(C(=O)c2cccc(C(F)(F)F)c2Cl)C3C)ncc1F (stereo not drawn) [Example 230, (2-chloro-3-(trifluoromethyl)phenyl)(1-(5-fluoro-4-methylpyrimidin-2-yl)-4-methyl-6,7-dihydro-1H-[1,2,3]triazolo[4,5-c]pyridin-5(4H)-yl)methanone]",–,0.0895,2.9
"Cc1cc(C)nc(-n2nnc3c2CCN(C(=O)c2cccc(C(F)(F)F)c2Cl)C3C)n1 (stereo not drawn) [Example 253, (2-Chloro-3-(trifluoromethyl)phenyl)(1-(4,6-dimethylpyrimidin-2-yl)-4-methyl-6,7-dihydro-1H-[1,2,3]triazolo[4,5-c]pyridin-5(4H)-yl)methanone]",–,12.7,−2.6
"O=C(c1cccc(C(F)(F)F)c1Cl)N1CCc2[nH]cnc2C1C(F)(F)F (stereo not drawn) [Example 39, 5-{[2-Chloro-3-(trifluoromethyl)phenyl]carbonyl}-4-(trifluoromethyl)-4,5,6,7-tetrahydro-1H-imidazo[4,5-c]pyridine]",–,–,112.0
"Cc1cccnc1-n1nnc2c1CCN(C(=O)c1cccc(C(F)(F)F)c1Cl)[C@H]2C (single isomer, unassigned) [Example 292, (S*)-(2-chloro-3-(trifluoromethyl)phenyl)(4-methyl-1-(3-methylpyridin-2-yl)-6,7-dihydro-1H-[1,2,3]triazolo[4,5-c]pyridin-5(4H)-yl)methanone]",–,–,36.7
"Cc1cc(C)nc(-n2nnc3c2CCN(C(=O)c2cccc(C(F)(F)F)c2Cl)[C@H]3C)n1 (single isomer, unassigned) [Example 182, (S*)-(2-chloro-3-(trifluoromethyl)phenyl)(1-(4,6-dimethylpyrimidin-2-yl)-4-methyl-6,7-dihydro-1H-[1,2,3]triazolo[4,5-c]pyridin-5(4H)-yl)methanone]",–,–,62.5
"C[C@H]1Cc2c(nnn2-c2ncc(F)cn2)CN1C(=O)c1cccc(C(F)(F)F)c1 [Example 304, (S)-(1-(5-fluoropyrimidin-2-yl)-6-methyl-6,7-dihydro-1H-[1,2,3]triazolo[4,5-c]pyridin-5(4H)-yl)(3-(trifluoromethyl)phenyl)methanone]",–,–,3.2
"C[C@@H]1c2nnn(-c3ccc(F)cc3)c2C[C@H](C)N1C(=O)c1cccc(C(F)(F)F)c1Cl [Example 287, (2-chloro-3-(trifluoromethyl)phenyl)((4R,6S)-1-(4-fluorophenyl)-4,6-dimethyl-6,7-dihydro-1H-[1,2,3]triazolo[4,5-c]pyridin-5(4H)-yl)methanone]",–,–,−4.1
"C[C@H]1c2nnn(-c3ncc(F)cn3)c2CCN1C(=O)c1ccnc(C(F)(F)F)c1Cl (single isomer, unassigned) [Example 164, (S*)-(3-chloro-2-(trifluoromethyl)pyridin-4-yl)(1-(5-fluoropyrimidin-2-yl)-4-methyl-6,7-dihydro-1H-[1,2,3]triazolo[4,5-c]pyridin-5(4H)-yl)methanone]",–,–,98.1
"COCCn1ccc(-n2nnc3c2CCN(C(=O)c2cccc(C(F)(F)F)c2Cl)[C@H]3C)n1 (single isomer, unassigned) [Example 249, (S*)-(2-Chloro-3-(trifluoromethyl)phenyl)(1-(1-(2-methoxyethyl)-1H-pyrazol-3-yl)-4-methyl-6,7-dihydro-1H-[1,2,3]triazolo[4,5-c]pyridin-5(4H)-yl)methanone]",–,–,5.1
"CC1c2ncn(-c3ncc(F)cn3)c2CCN1C(=O)c1cccc(C(F)(F)F)c1Cl (stereo not drawn) [Example 22, (2-Chloro-3-(trifluoromethyl)phenyl)(1-(5-fluoropyrimidin-2-yl)-4-methyl-6,7-dihydro-1H-imidazo[4,5-c]pyridin-5(4H)-yl)methanone]",–,–,−15.9
"C[C@@H]1Cc2c(nnn2-c2ncc(F)cn2)CN1C(=O)c1cccc(C(F)(F)F)c1F [Example 219, (6R)-1-(5-Fluoropyrimidin-2-yl)-5-{[2-fluoro-3-(trifluoromethyl)phenyl]carbonyl}-6-methyl-4,5,6,7-tetrahydro-1H-[1,2,3]triazolo[4,5-c]pyridine]",–,–,76.5
"COc1ccnc(-n2nnc3c2CCN(C(=O)c2cccc(C(F)(F)F)c2Cl)[C@H]3C)c1 (single isomer, unassigned) [Example 151, (R*)-(2-Chloro-3-(trifluoromethyl)phenyl)(1-(4-methoxypyridin-2-yl)-4-methyl-6,7-dihydro-1H-[1,2,3]triazolo[4,5-c]pyridin-5(4H)-yl)methanone]",–,–,19.5
"C[C@@H]1Cc2c(nnn2-c2ncccc2F)CN1C(=O)c1cccc(C(F)(F)F)c1Cl (single isomer, unassigned) [Example 167, (6R*)-5-{[2-Chloro-3-(trifluoromethyl)phenyl]carbonyl}-1-(3-fluoropyridin-2-yl)-6-methyl-4,5,6,7-tetrahydro-1H-[1,2,3]triazolo[4,5-c]pyridine]",–,–,4.2
"C[C@H]1c2nnn(-c3ncc(F)cn3)c2CCN1C(=O)c1ccnc(C(F)(F)F)c1F (single isomer, unassigned) [Example 229, (S*)-(3-fluoro-2-(trifluoromethyl)pyridin-4-yl)(1-(5-fluoropyrimidin-2-yl)-4-methyl-6,7-dihydro-1H-[1,2,3]triazolo[4,5-c]pyridin-5(4H)-yl)methanone]",–,–,116.4
